Laboratory results from patent publication US20250154127A1, “BICYCLIC HETEROARYL COMPOUNDS AND USES THEREOF” (ETERN BIOPHARMA (SHANGHAI) CO., LTD., priority 2022, published 2025).

Legend:
[1] = molecular target: TEAD1(210-426) binding to YAP(50-100) (Homo sapiens, UniProt P28347); test: TR-FRET Assay for TEAD1(210-426) Binding to YAP(50-100); conditions: His-TEAD 10 nM, YAP-Biotin peptide 50 nM
Method: Compounds were performed 3 fold serial dilution, 12 data points, added to 384 well white plate. The final DMSO concentration is 1%, duplicate for each concentration. Then His-TEAD protein was added to a final concentration of 10 nM, and allowed to preincubate for 30 minutes at room temperature. Assay buffer was added as background control.
YAP-Biotin peptide was added to a final concentration of 50 nM, mixed well, incubate 10 minutes at room temperature. The YAP(50-100) peptide sequence used here is named SEQ ID NO: 2
The Europium-labeled anti-6×His antibody and APC labeled streptavidin were diluted according to the instructions, this detection solution was mixed 1:1 with reaction solution, incubated 1 hour at room temperature.
TR-FRET measurements were made on an Envision (Perkin Elmer), using an excitation wavelength of 320 nm and emissions read at 620 nm and 665 nm. The ratio of the 665 nm to the 620 nm multiply 10000 provides a normalized TR-FRET signal that represents the extent of binding.
Half inhibition concentration IC50 value was calculated by XLfit software.

[2] = system: MSTO-211H cells; test: Proliferation Assay (CellTiter-Glo Luminescent Cell Viability Assay); type: cell-based; conditions: Homo sapiens, 96 hours treatment
Method: Example 5: Proliferation Assay
The effect of compound on YAP driven cancer cells proliferation was assessed in MSTO-211H (ATCC, CRL-2081TM) or NCI-H2052 (ATCC, CRL-5915TM) cells using CellTiter-Glo Luminescent Cell Viability Assay (Promega, G7570).
Briefly, individual cell lines were seeded in 96-well cell culture plate at the density of 1,500 cells per well and cultured in RPMII1640 (Gibco-A10491-01)+10% FBS (Gibco-10099-141C)+1% Penicillin-Streptomycin (5,000 U/mL, Gibco-15070-063) overnight at 37° C. with 5% CO2 before adding the compounds.
Following incubation, serial dilutions of compounds dissolved in DMSO were added to each well (3-fold dilution with 9 concentration points). The final concentration of DMSO present in this assay is below 0.5% and make duplication for each compound treated well.
Following 96 hours treatment, compound mediated cell growth inhibition was measured using CellTiter-Go Luminescent Cell Viability Assay (Promega, G7570). […] CellTiter-Glo in each assay well, mix and incubate at room temperature for 10 min. Read signal using EnVision® Multilabel Plate Reader (Perkin Elmer).
For data analysis, cell proliferation inhibition was calculated using the following formula:
Inhibition %=(1−(Compound treated well CTG signal/DMSO well CTG signal))*100.
IC50 values were calculated using GraphPad Prism software using a four-parameter fit model.

Sequence of TEAD1(210-426) binding to YAP(50-100) (P28347 209-426): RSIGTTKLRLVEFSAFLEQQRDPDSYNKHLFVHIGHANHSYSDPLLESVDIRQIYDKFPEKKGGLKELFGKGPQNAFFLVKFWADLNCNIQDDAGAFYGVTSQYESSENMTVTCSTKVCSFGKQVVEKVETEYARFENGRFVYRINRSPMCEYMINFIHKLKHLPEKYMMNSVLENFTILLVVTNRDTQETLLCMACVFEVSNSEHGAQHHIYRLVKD

IC50 [1] [nM]	Compound	IC50 [2] [nM]
≤ 100	CNc1ccnc(Cn2ccc(-c3nn(-c4ccc(C(F)(F)F)cc4)c4cc(F)ccc34)cc2=O)n1 [Compound 53, 4-(6-fluoro-1-(4-(trifluoromethyl)phenyl)-1H-indazol-3-yl)-1-((4-(methylamino)pyrimidin-2-yl)methyl)pyridin-2(1H)-one]	≤ 1000
≤ 100	CN(C)c1nccc(Cn2ccc(-c3nn(-c4ccc(C(F)(F)F)cc4)c4ccccc34)cc2=O)n1 [Compound 66, 1-((2-(dimethylamino)pyrimidin-4-yl)methyl)-4-(1-(4-(trifluoromethyl)phenyl)-1H-indazol-3-yl)pyridin-2(1H)-one]	≤ 1000
≤ 100	COCCOc1nccc(Cn2ccc(-c3nn(-c4ccc(C(F)(F)F)cc4)c4c(F)cccc34)cc2=O)n1 [Compound 134, 4-(7-fluoro-1-(4-(trifluoromethyl)phenyl)-1H-indazol-3-yl)-1-((2-(2-methoxyethoxy)pyrimidin-4-yl)methyl)pyridin-2(1H)-one]	≤ 1000
≤ 100	C[C@@H](c1ccccn1)n1ccc(-c2nn(-c3ccc(Cl)cc3)c3cccnc23)cc1=O [Compound 5, (S)-4-(1-(4-chlorophenyl)-1H-pyrazolo[4,3-b]pyridin-3-yl)-1-(1-(pyridin-2-yl)ethyl)pyridin-2(1H)-one]	1000 to 10000
≤ 100	O=c1cc(-c2nn(-c3ccc(C(F)(F)F)cc3)c3ncccc23)ccn1Cc1ncccn1 [Compound 115, 1-(pyrimidin-2-ylmethyl)-4-(1-(4-(trifluoromethyl)phenyl)-1H-pyrazolo[3,4-b]pyridin-3-yl)pyridin-2(1H)-one]	≤ 1000
≤ 100	O=c1cc(-c2nn(-c3ccc(C(F)(F)F)cc3)c3ncccc23)ccn1Cc1ccnc(NC2CC2)n1 [Compound 44, 1-((2-(cyclopropylamino)pyrimidin-4-yl)methyl)-4-(1-(4-(trifluoromethyl)phenyl)-1H-pyrazolo[3,4-b]pyridin-3-yl)pyridin-2(1H)-one]	≤ 1000
> 1000	Cn1ccc(-c2nn(-c3ccc(C(F)(F)F)cc3)c3cccnc23)cc1=O [Compound 10, 1-methyl-4-(1-(4-(trifluoromethyl)phenyl)-1H-pyrazolo[4,3-b]pyridin-3-yl)pyridin-2(1H)-one]	
≤ 100	CNc1nccc(Cn2ccc(-c3nn(-c4ccc(F)cc4)c4ncccc34)cc2=O)n1 [Compound 58, 4-(1-(4-fluorophenyl)-1H-pyrazolo[3,4-b]pyridin-3-yl)-1-((2-(methylamino)pyrimidin-4-yl)methyl) pyridin-2(1H)-one]	≤ 1000
≤ 100	CNc1nccc(Cn2ccc(-c3nn(-c4ccc(OC(F)(F)F)cc4)c4c(F)cccc34)cc2=O)n1 [Compound 145, 4-(7-fluoro-1-(4-(trifluoromethoxy)phenyl)-1H-indazol-3-yl)-1-((2-(methylamino)pyrimidin-4-yl)methyl)pyridin-2(1H)-one]	≤ 1000
≤ 100	CNc1nccc(Cn2ccc(-n3nc(-c4ccc(C(F)(F)F)cc4)c4nccnc43)cc2=O)n1 [Compound 51, 1-((2-(methylamino)pyrimidin-4-yl)methyl)-4-(3-(4-(trifluoromethyl)phenyl)-1H-pyrazolo[3,4-b]pyrazin-1-yl)pyridin-2(1H)-one]	≤ 1000
≤ 100	CN(CCO)c1nccc(Cn2ccc(-n3nc(-c4ccc(C(F)(F)F)cc4)c4ncccc43)cc2=O)n1 [Compound 47, 1-((2-((2-hydroxyethyl)(methyl)amino)pyrimidin-4-yl)methyl)-4-(3-(4-(trifluoromethyl)phenyl)-1H-pyrazolo[4,3-b]pyridin-1-yl)pyridin-2(1H)-one]	≤ 1000
≤ 100	O=c1cc(-n2nc(-c3ccc(C(F)(F)F)cc3)c3ncccc32)ccn1Cc1ccn(CCO)n1 [Compound 45]	≤ 1000
≤ 100	Nc1cc(Cn2ccc(-c3nn(-c4ccc(C(F)(F)F)cc4)c4ncccc34)cc2=O)ccn1 [Compound 112, 1-((2-aminopyridin-4-yl)methyl)-4-(1-(4-(trifluoromethyl)phenyl)-1H-pyrazolo[3,4-b]pyridin-3-yl)pyridin-2(1H)-one]	≤ 1000
≤ 100	O=c1cc(-c2nc(-c3ccc(C(F)(F)F)cc3)n3ccccc23)ccn1Cc1ccnc(OCCO)n1 [Compound 132, 1-((2-(2-hydroxyethoxy)pyrimidin-4-yl)methyl)-4-(3-(4-(trifluoromethyl)phenyl)imidazo[1,5-a]pyridin-1-yl)pyridin-2(1H)-one]	≤ 1000
≤ 100	CNc1nccc(Cn2ccc(-c3nn(-c4ccc(OC(F)(F)F)cc4)c4ncccc34)cc2=O)n1 [Compound 59, 1-((2-(methylamino)pyrimidin-4-yl)methyl)-4-(1-(4-(trifluoromethoxy)phenyl)-1H-pyrazolo[3,4-b]pyridin-3-yl) pyridin-2(1H)-one]	≤ 1000
≤ 100	O=c1cc(-c2nn(-c3ccc(C(F)(F)F)cc3)c3ccccc23)ccn1Cc1nccc(O)n1 [Compound 71]	≤ 1000
≤ 100	CN(CCO)c1nccc(Cn2ccc(-n3nc(-c4ccc(C(F)(F)F)cc4)c4c(F)cccc43)cc2=O)n1 [Compound 139, 4-(4-fluoro-3-(4-(trifluoromethyl)phenyl)-1H-indazol-1-yl)-1-((2-((2-hydroxyethyl)(methyl)amino)pyrimidin-4-yl)methyl)pyridin-2(1H)-one]	≤ 1000
100 to 1000	Cn1cc(Cn2ccc(-c3nn(-c4ccc(C(F)(F)F)cc4)c4ccccc34)cc2=O)cn1 [Compound 36, 1-((1-methyl-1H-pyrazol-4-yl)methyl)-4-(1-(4-(trifluoromethyl)phenyl)-1H-indazol-3-yl)pyridin-2(1H)-one]	
100 to 1000	C[C@@H](c1ccccn1)n1ccc(-c2nn(-c3ccc(C(F)(F)F)cc3)c3ccc(C#N)cc23)cc1=O [Compound 25]	
	CNc1nccc(Cn2ccc(-c3nn(-c4ccc(C(F)F)cc4)c4ncccc34)cc2=O)n1 [Compound 144, 4-(1-(4-(difluoromethyl)phenyl)-1H-pyrazolo[3,4-b]pyridin-3-yl)-1-((2-(methylamino)pyrimidin-4-yl)methyl) pyridin-2(1H)-one]	≤ 1000
100 to 1000	C[C@@H](c1ccccn1)n1ccc(-c2nn(-c3ccc(C(F)(F)F)cc3)c3ccc(C(=O)O)cc23)cc1=O [Compound 21]	
≤ 100	C[C@@H](c1ccccn1)n1ccc(-n2nc(-c3ccc(C(F)(F)F)cc3)c3cccnc32)cc1=O [Compound 32, (S)-1-(1-(pyridin-2-yl)ethyl)-4-(3-(4-(trifluoromethyl)phenyl)-1H-pyrazolo[3,4-b]pyridin-1-yl)pyridin-2(1H)-one]	
100 to 1000	COC(=O)c1ccc2c(c1)c(-c1ccn([C@@H](C)c3ccccn3)c(=O)c1)nn2-c1ccc(C(F)(F)F)cc1 [Compound 22, methyl (S)-3-(2-oxo-1-(1-(pyridin-2-yl)ethyl)-1,2-dihydropyridin-4-yl)-1-(4-(trifluoromethyl)phenyl)-1H-indazole-5-carboxylate]	
	CN(CCO)c1ccnc(Cn2ccc(-c3nn(-c4ccc(C(F)(F)F)cc4)c4ccccc34)cc2=O)n1 [Compound 79, 1-((4-((2-hydroxyethyl)(methyl)amino)pyrimidin-2-yl)methyl)-4-(1-(4-(trifluoromethyl)phenyl)-1H-indazol-3-yl)pyridin-2(1H)-one]	≤ 1000
100 to 1000	C[C@@H](c1ccccn1)n1ccc(-c2nn(-c3ccc(C(F)(F)F)cc3)c3ccc(C(N)=O)cc23)cc1=O [Compound 23]	
100 to 1000	COC(=O)c1ccc2c(-c3ccn([C@@H](C)c4ccccn4)c(=O)c3)nn(-c3ccc(C(F)(F)F)cc3)c2c1 [Compound 26, methyl (S)-3-(2-oxo-1-(1-(pyridin-2-yl)ethyl)-1,2-dihydropyridin-4-yl)-1-(4-(trifluoromethyl)phenyl)-1H-indazole-6-carboxylate]	
≤ 100	C[C@@H](c1ccccn1)n1ccc(-c2nc(-c3ccc(C(F)(F)F)cc3)n3ccccc23)cc1=O [Compound 35, (S)-1-(1-(pyridin-2-yl)ethyl)-4-(3-(4-(trifluoromethyl)phenyl)imidazo[1,5-a]pyridin-1-yl)pyridin-2(1H)-one]	
> 1000	O=c1cc(-c2nn(-c3ccc(C(F)(F)F)cc3)c3ccccc23)ccn1C1CCOCC1 [Compound 27]	
